Consider one substance from patent US7169603B2, “α-MSH related compounds and methods of use” (MGI Pharma Biologics, Inc., priority 2000, dated 2007).

Square brackets hold non-standard residues; d marks the D form.

One test concerns Leptin −/− mice. The test can be described thus: Leptin -/- mouse model of obesity. The test is classed as in vivo. To be noted: 1 μg daily for three weeks, intranasally, intrarectally or subcutaneously; compared to untreated mice; FIG. 18A. How it is done: Leptin −/− mice were used as a model of mammalian obesity to evaluate the effectiveness of an α-MSH analog and an α-MSH encoding nucleic acid to treat the condition. […] Leptin −/− obese mice were administered (either intranasally, intrarectally, or subcutaneously) with 1 μg of the α-MSH(4-13) analog daily for three weeks.

Another test concerns TNBS-treated mice. The test can be described thus: TNBS-induced Inflammatory Bowel Disease (IBD) model. The test is classed as in vivo. To be noted: intranasal administration together with TNBS. An excerpt:
Inflammatory Bowel Disease (IBD) was induced in mice by the administration of trinitrobenzenesulphonic acid (TNBS), in 40% EtOH, to the mice. […] The IBD model is described in, for example, Keates et al. (2000) Gastroenterology 119:972–82.
The administration of EtOH alone (no TNBS) caused no weight loss in the animals. The “untreated” mice were given only the TNBS administration. The aMSH(4-13) mice were given an administration of TNBS, together with an intranasal administration of the aMSH(4-13) analog, which reduced the severity of the TNBS-induced weight loss.

As to “Ac-CEH[dF]RWCKPV-NH2 (cysteine pairing not given here) [α-MSH(4-13) analog]”, the weight gain result with Leptin −/− mice is reported as “a decrease in weight gain”. Besides, the “survival of TNBS-treated animals” value with TNBS-treated mice is recorded as “increased the survival”. For the same substance, the TNBS-induced weight loss result in the test on TNBS-treated mice (FIG. 17A) is “decreased the weight loss”.
